Results taken from US6281214A, “Biphenyl derivatives” (Eisai Co., Ltd, priority 1994, dated 2001).
pKi: −log10 of the molar value.

How the values were obtained:
Parameters in all cases: species or system SD rats
serotonin S2 receptor = target: T1, serotonin S2 receptor (Rattus norvegicus, UniProt P14842); test: serotonin S2 receptor binding test ([3H] Ketanserin Binding Test); details: 1 nM [3H] Ketanserin, rat cortex, 37° C., 15 minutes
T1 construct: The receptor fraction prepared from the cortex was molten and suspended; from tissue; host or cells: cerebral cortex of SD rats (membrane fraction)
In short: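 Ki values came from probit IC50s corrected for radioligand concentration and Kd (Scatchard). Binding used 1 nM [3H]ketanserin with SD rat cortex membrane fractions, 15 min at 37 °C in Tris-HCl pH 7.4. Bound radioactivity was measured after GF/B filtration, with methysergide for nonspecific binding.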

dopamine D2 receptor = target: T2, dopamine D2 receptor (Rattus norvegicus, UniProt P61169); test: dopamine D2 receptor binding test ([3H] Spiperone Binding Test); details: 1 nM [3H] Spiperone, rat corpus striatum, room temperature, 60 minutes; read-out: Ki value, dopamine D2 receptor
T2 construct: the receptor fraction prepared from the corpus striatum was molten and suspended; from tissue; host or cells: corpus striatum of SD rats (membrane fraction)
In short: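 Rat (SD, 6–8 weeks) corpus striatum membranes in 50 mM Krebs-Tris pH 7.4 were incubated with 1 nM [3H]spiperone at room temperature for 60 minutes, with nonspecific binding defined by excess spiperone. IC50 came from probit analysis; Ki was derived using radioligand concentration and Scatchard Kd.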

adrenergic α1 receptor = adrenergic α1 receptor binding test ([3H] Prazosin Binding Test); details: 1 nM [3H] Prazosin, rat cortex, room temperature, 60 minutes
In short: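 Rat (SD, 6-8 weeks) cerebral cortex membranes in 50 mM Tris-HCl pH 7.4 incubated with 1 nM [3H]prazosin for 60 min at room temperature; nonspecific binding defined with phentolamine. IC50 by probit method, converted to Ki using radioligand concentration and Scatchard-derived Kd.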

T2 sequence (P61169 whole entry): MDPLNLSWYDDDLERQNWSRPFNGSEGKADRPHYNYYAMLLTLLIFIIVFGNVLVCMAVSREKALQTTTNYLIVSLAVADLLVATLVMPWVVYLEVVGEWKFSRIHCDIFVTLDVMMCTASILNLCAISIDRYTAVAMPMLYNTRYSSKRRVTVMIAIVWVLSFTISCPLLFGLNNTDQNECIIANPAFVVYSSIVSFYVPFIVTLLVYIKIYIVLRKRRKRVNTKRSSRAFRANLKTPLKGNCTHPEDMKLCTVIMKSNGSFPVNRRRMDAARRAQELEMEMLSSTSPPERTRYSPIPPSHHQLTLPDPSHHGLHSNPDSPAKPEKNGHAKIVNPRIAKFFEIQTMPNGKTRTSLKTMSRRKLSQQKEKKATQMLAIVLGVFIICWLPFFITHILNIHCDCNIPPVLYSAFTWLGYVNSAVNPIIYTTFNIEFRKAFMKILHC
T1 sequence (P14842 whole entry): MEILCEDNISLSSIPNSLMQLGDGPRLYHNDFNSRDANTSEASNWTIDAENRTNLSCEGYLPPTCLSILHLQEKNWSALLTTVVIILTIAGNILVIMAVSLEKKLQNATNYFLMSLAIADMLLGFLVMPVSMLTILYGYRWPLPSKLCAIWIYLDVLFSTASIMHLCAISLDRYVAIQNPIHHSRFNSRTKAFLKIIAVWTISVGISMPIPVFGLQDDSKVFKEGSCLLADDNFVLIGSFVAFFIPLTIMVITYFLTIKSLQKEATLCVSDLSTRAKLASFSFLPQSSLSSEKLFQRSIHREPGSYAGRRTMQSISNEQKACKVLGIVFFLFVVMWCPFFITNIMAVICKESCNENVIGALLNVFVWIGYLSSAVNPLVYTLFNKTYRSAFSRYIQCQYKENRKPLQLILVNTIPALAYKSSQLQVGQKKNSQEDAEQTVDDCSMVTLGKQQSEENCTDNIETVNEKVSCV

| SMILES | pKi (serotonin S2 receptor) | pKi (dopamine D2 receptor) | pKi (adrenergic α1 receptor) |
| --- | --- | --- | --- |
| CCC(F)c1cc(N2CCN(CC)CC2)cc(-c2ccc(F)cc2Cl)c1Cl (stereo not drawn) [Example 156] | 7.54 | 8.86 | 6.29 |
| CCC(CC)c1cc(N2CCN(CC)CC2)cc(-c2ccccc2C)c1Cl [Example 157, 1-Ethyl-4-[3-(2-tolyl)-4-chloro-5-(1-ethylpropyl)]phenylpiperazine] | 7.13 | 8.14 | < 6.00 |
| CCN1CCN(c2cc(-c3ccccc3C)c(Cl)c(S(C)(=O)=O)c2)CC1 [Example 158, 1-Ethyl-4-[3-(2-tolyl)-4-chloro-5-methanesulfonyl]phenylpiperazine] | 6.91 | 7.91 | < 6.00 |
| CCCS(=O)(=O)c1cc(N2CCN(CC)CC2)cc(-c2ccccc2C)c1Cl [Example 159, 1-Ethyl-4-[3-(2-tolyl)-4-chloro-5-propanesulfonyl]phenylpiperazine] | 8.06 | 8.41 | 6.22 |
| C=CCCC(F)c1cc(N2CCN(CC)CC2)cc(-c2ccccc2C)c1Cl (stereo not drawn) [Example 160, 1-Ethyl-4-[3-(2-tolyl)-4-chloro-5-(1-fluoro-4-pentenyl)]phenylpiperazine] | 7.83 | 7.87 | < 6.00 |
| CCCNS(=O)(=O)c1cc(N2CCN(CC)CC2)cc(-c2ccccc2C)c1Cl [Example 161, 1-Ethyl-4-[3-(2-tolyl)-4-chloro-5-propylaminosulfonyl]phenylpiperazine] | 7.65 | 8.01 | 6.11 |
| CCN1CCN(c2cc(NS(=O)(=O)CC(F)(F)F)c(Cl)c(-c3ccccc3Cl)c2)CC1 [Example 163, 1-Ethyl-4-[3-(2-chlorophenyl)-4-chloro-5-(2,2,2-trifluoroethyl)sulfonylamino]phenylpiperazine] | 7.20 | 7.99 | 6.71 |
| CCC(F)c1cc(N2CCN(CC)CC2)cc(-c2ccccc2C)c1C#N (stereo not drawn) [Example 164, 1-Ethyl-4-[3-(2-tolyl)-4-cyano-5-(1-fluoropropyl)]phenylpiperazine] | 7.92 | 8.79 | < 6.00 |
| CCN1CCN(c2cc(NS(=O)(=O)CCCCl)c(Cl)c(-c3ccccc3C)c2)CC1 [Example 165] | 8.21 | 9.13 | < 6.00 |
| CCN1CCN(c2cc(-c3ccccc3C)c(Cl)c(S(=O)(=O)Nc3ccccc3)c2)CC1 [Example 166, 1-Ethyl-4-[3-(2-tolyl)-4-chloro-5-phenylaminosulfony]phenylpiperazine] | 8.27 | 8.85 | < 6.00 |
| CCN1CCN(c2cc(COCc3ccccc3)c(Cl)c(-c3ccccc3C)c2)CC1 [Example 167, 1-Ethyl-4-[3-(2-tolyl)-4-chloro-5-benzyloxymethyl]phenylpiperazine] | 7.62 | 7.34 | < 6.00 |
| CCCOCc1cc(N2CCN(CC)CC2)cc(-c2ccccc2C)c1Cl [Example 168, 1-Ethyl-4-[3-(2-tolyl)-4-chloro-5-propoxymethyl]phenylpiperazine] | 6.74 | 7.50 | < 6.00 |
| CCN1CCN(c2cc(COCc3ccncc3)c(Cl)c(-c3ccccc3C)c2)CC1 [Example 169, 1-Ethyl-4-[3-(2-tolyl)-4-chloro-5-(4-pyridyl)methoxymethyl]phenylpiperazine] | 6.97 | 7.38 | < 6.00 |
| CCCS(=O)(=O)c1cc(N2CCN(CC)CC2)cc(-c2ccccc2)c1OC [Example 170, 1-Ethyl-4-(3-phenyl-4-methoxy-5-propanesulfonyl)phenylpiperazine] | 8.56 | 7.47 | < 6.00 |
| CCCCS(=O)(=O)c1cc(N2CCN(CC)CC2)cc(-c2ccccc2)c1OC [Example 171, 1-Ethyl-4-(3-phenyl-4-methoxy-5-butanesulfonyl)phenylpiperazine] | 8.56 | 7.06 | < 6.00 |
| CCN1CCN(c2cc(-c3ccccc3)c(OC)c(S(=O)(=O)CCF)c2)CC1 [Example 172, 1-Ethyl-4-[3-phenyl-4-methoxy-5-(2-fluoroethane)sulfonyl]phenylpiperazine] | 7.52 | 7.31 | < 6.00 |
| CCOCc1cc(N2CCN(CC)CC2)cc(-c2ccccc2C)c1Cl [Example 173, 1-Ethyl-4-[3-(2-tolyl)-4-chloro-5-ethoxymethyl]phenylpiperazine] | < 6.00 | 7.72 | < 6.00 |
| CCCC(O)c1cc(N2CCN(C)CC2)cc(-c2ccccc2C)c1Cl (stereo not drawn) [Example 174] | 7.31 | 7.50 | < 6.00 |

| SMILES | pKi (serotonin S2 receptor) | pKi (dopamine D2 receptor) | pKi (adrenergic α1 receptor) |
| --- | --- | --- | --- |
| C=CCOCc1cc(N2CCN(CC)CC2)cc(-c2ccccc2C)c1Cl [Example 175, 1-Ethyl-4-[3-(2-tolyl)-4-chloro-5-allyloxymethyl]phenylpiperazine] | < 7.00 | 7.53 | < 6.00 |
| CCN1CCN(c2cc(COCC3CC3)c(Cl)c(-c3ccccc3C)c2)CC1 [Example 176, 1-Ethyl-4-[3-(2-tolyl)-4-chloro-5-cyclopropylmethoxymethyl]phenylpiperazine] | 6.75 | < 7.00 | < 6.00 |
| CCN1CCN(c2cc(-c3ccccc3C)c(Cl)c(N3CCCC3)c2)CC1 [Example 177] | < 7.00 | < 7.00 | < 6.00 |
| CCCC(F)c1cc(N2CCN(C)CC2)cc(-c2ccccc2Cl)c1Cl (stereo not drawn) [Example 178, 1-Methyl-4-[3-(2-chlorophenyl)-4-chloro-5-(1-fluorobutyl)]phenylpiperazine] | 7.91 | 8.14 | < 6.00 |
| CN1CCN(c2cc(NS(=O)(=O)Cc3ccccc3)c(Cl)c(-c3ccccc3Cl)c2)CC1 [Example 179, 1-Methyl-4-[3-(2-chlorophenyl)-4-chloro-5-benzylsulfonylamino]phenylpiperazine] | 8.18 | 8.22 | 7.14 |
| CCCS(=O)(=O)c1cc(N2CCN(C)CC2)cc(-c2ccccc2Cl)c1Cl [Example 180, 1-Methyl-4-[3-(2-chlorophenyl)-4-chloro-5-propanesulfonyl]phenylpiperazine] | 8.46 | 7.89 | < 7.00 |
| CCN1CCN(c2cc(-c3ccccc3)c(OC)c(S(=O)(=O)CCCOc3ccc(F)cc3)c2)CC1 [Example 181, 1-Ethyl-4-{3-phenyl-4-methoxy-5-[3-(4-fluorophenoxy)propane]sulfonyl}phenylpiperazine] | 9.30 | 7.58 | < 7.00 |
| CC(C)S(=O)(=O)Nc1cc(N2CCN(C)CC2)cc(-c2ccccc2Cl)c1Cl [Example 182, 1-Methyl-4-(3-(2-chlorophenyl)-4-chloro-5-isopropylsulfonylamino]phenylpiperazine] | 6.84 | 8.63 | 6.73 |
| CCN1CCN(c2cc(-c3ccccc3)c(OC)c(S(=O)(=O)CCC#N)c2)CC1 [Example 183, 1-Ethyl-4-[3-phenyl-4-methoxy-5-(2-cycanoethylsulfonyl)]phenylpiperazine] | 7.09 | 6.78 | < 6.00 |
| CCCS(=O)(=O)Nc1cc(N2CCN(CC)CC2)cc(-c2ccccc2)c1Cl [Example 184, 1-Ethyl-4-(3-phenyl-4-chloro-5-propanesulfonylamino)phenylpiperazine] | 8.68 | 9.77 | 8.34 |
| CCN1CCN(c2cc(-c3ccccc3C)c(Cl)c(C(F)F)c2)CC1 [Example 185, 1-Ethyl-4-[3-(2-tolyl)-4-chloro-5-difluoromethyl]phenylpiperazine] | < 7.00 | 9.24 | < 6.00 |
| CCN1CCN(c2cc(-c3ccccc3)c(OC)c(C(F)(F)CC)c2)CC1 [Example 186, 1-Ethyl-4-[3-phenyl-4-methoxy-5-(1,1-difluoropropyl)]phenylpiperazine] | 8.37 | 8.53 | < 6.00 |
| CCCS(=O)(=O)Nc1cc(N2CCN(CC)CC2)cc(-c2ccc(OC)cc2)c1Cl [Example 187, 1-Ethyl-4-[3-(4-methoxyphenyl)-4-chloro-5-propanesulfonyamino]phenylpiperazine] | 7.42 | 9.27 | 8.11 |
| CN1CCN(c2cc(NS(C)(=O)=O)c(Cl)c(-c3ccccc3Cl)c2)CC1 [Example 188, 1-Methyl-4-[3-(2-chlorophenyl)-4-chloro-5-methanesulfonylamino]phenylpiperazine] | 7.32 | 8.88 | 7.72 |
| CCCS(=O)(=O)Nc1cc(N2CCN(CC)CC2)cc(-c2ccc(Cl)cc2Cl)c1Cl [Example 189, 1-Ethyl-4-[3-(2,4-dichlorophenyl)-4-chloro-5-propanesulfonyamino]phenylpiperazine] | < 7.00 | 8.82 | 7.49 |
| CCN1CCN(c2cc(-c3ccccc3C)c(Cl)c(C3SCCCS3)c2)CC1 [Example 190, 1-Ethyl-4-[3-(2-tolyl)-4-chloro-5-(1,3-dithian-2-yl)phenylpiperazinepropanedithio]phenylpiperazine] | 7.73 | 7.39 | < 6.00 |
| CCCS(=O)(=O)c1cc(N2CCN(CC)CC2)cc(-c2ccccc2)c1Cl [Example 191] | 8.42 | 8.78 | 7.67 |
